Patent publication US12679827B2, “Pyrimidine compounds and their pharmaceutical uses” (National Health Research Institutes, priority 2020, dated 2026)
Read-outs that look alike come from different tables or passages of the source.

Legend:
[1] = test system: SNU-398; experiment: Proliferation inhibition of various cancer cells (PrestoBlue), SNU-398; assay type: cell-based; settings: Homo sapiens, Liver cancer, 72 hours
Method: (§1) The efficacies of compounds 41 and 86 of Formula (I) in inhibiting proliferation of eleven types of cancer cells were determined using PrestoBlue™ Cell Viability Reagent (ThermoFisher Scientific, USA). The eleven types of cancer cells are small cell lung cancer, non-small cell lung cancer, liver cancer, pancreatic cancer, breast cancer, colon cancer, prostate cancer, neuroblastoma, brain cancer, leukemia, and cholangiocarcinoma.
(§2) More specifically, […], i.e., NCI-H82 (ATCC® HTB-175), NCI-H446 (ATCC® HTB-171), NCI-H69 (ATCC® HTB-119), NCI-H146 (ATCC® HTB-173), NCI-H1792 (ATCC® CRL-5895), NCI-H1299 (ATCC® CRL-5803), SNU-398 (ATCC® CRL-2233), PSN-1 (ATCC® CRL-3211), MIA PaCa-2 (ATCC® CRL-1420), MDA-MB-231 (ATCC® HTB-26), LOVO (ATCC® CCL-229), COLO 205 (ATCC® CCL-222), PC-3 (ATCC® CRL-1435), SK-N-BE(2) (ATCC® CRL-2271), D341 Med (ATCC® HTB-187), K562 (ATCC® CCL-243), MOLM-13 (DSMZ-German Collection of Microorganisms and Cell Cultures GmbH, ACC No. 554), and SNU-478 (KCLB 00478), were seeded at a density of 4000-10000 cells per well in 96-well plates for 24 hours. The cancer cells were then treated with each compound at various concentrations (0-10 μM), followed by incubation for another 72 hours. IC50 values were computed based on duplicated 8-point titration.

[2] = test system: NCI-H446; experiment: Small-cell-lung cancer cell proliferation inhibition assay (PrestoBlue), NCI-H446; assay type: cell-based; settings: Homo sapiens, cMYC amplified SCLC cells, 72 hours
Method: Small cell lung cancer cells NCI-H82 (ATCC HTB-175, cMYC amplified), NCI-H446 (ATCC® HTB-171, cMYC amplified), and NCI-H69 (ATCC® HTB-119, MYCN amplified) were seeded at the density of 5000-10000 cells per well in 96-well plates. After 24 hours, the cancer cells were treated with each compound at various concentrations (0-10 μM) and then incubated for another 72 hours. IC50 values were computed based on duplicated 8-point titration.

[3] = test system: MOLM-13; experiment: Proliferation inhibition of various cancer cells (PrestoBlue), MOLM-13; assay type: cell-based; settings: Homo sapiens, Leukemia, 72 hours
Method: as §1, §2

[4] = test system: NCI-H69; experiment: Proliferation inhibition of various cancer cells (PrestoBlue), NCI-H69; assay type: cell-based; settings: Homo sapiens, Small cell lung cancer, 72 hours
Method: as §1, §2

[5] = test system: NCI-H82; experiment: Proliferation inhibition of various cancer cells (PrestoBlue), NCI-H82; assay type: cell-based; settings: Homo sapiens, Small cell lung cancer, 72 hours
Method: as §1, §2

[6] = test system: SK-N-BE(2); experiment: Proliferation inhibition of various cancer cells (PrestoBlue), SK-N-BE(2); assay type: cell-based; settings: Homo sapiens, SKNBE2; Neuroblastoma; 72 hours
Method: as §1, §2

[7] = test system: SNU-478; experiment: Proliferation inhibition of various cancer cells (PrestoBlue), SNU-478; assay type: cell-based; settings: Cholangiocarcinoma; 72 hours
Method: as §1, §2

[8] = test system: Colo205; experiment: Proliferation inhibition of various cancer cells (PrestoBlue), Colo205; assay type: cell-based; settings: Homo sapiens, COLO 205; Colon cancer; 72 hours
Method: as §1, §2

[9] = test system: cMYC; experiment: Western blot, cMYC protein level in NCI-H82 cells; assay type: cell-based, human; settings: NCI-H82 (SCLC) cells; 50, 200, 500, 1000 nM; 24 hours; FIG. 1
Method: Compounds 41 and 86, both covered by Formula (I), were tested to assess their efficacies in reducing the level of cMYC oncoprotein in a human small-cell-lung-cancer (“SCLC”) cell line NCI-H82 (ATCC® HTB-175, USA) and the level of MYCN oncoprotein in a human neuroblastoma cell line SK-N-BE(2) (ATCC® CRL-2271, USA) as follows.
NCI-H82 was maintained in RPMI1640 medium (ThermoFisher Scientific, USA) supplemented with 10% fetal bovine serum (FBS, HyClone, USA) and antibiotics. SK-N-BE(2) was maintained in Minimum Essential Medium (MEM, ThermoFisher Scientific, USA) supplemented with 10% FBS (HyClone, USA) and antibiotics. The cancer cells from each cell line were treated with each of compounds 41 and 86 at 4 different compound concentrations, i.e., 50 nM, 200 nM, 500 nM, and 1000 nM. After 24 hours, each cancer cell solution was washed with 1× phosphate buffered saline (PBS), lysed in 1× Laemmli protein sample buffer, and boiled at 100° C. for 10 minutes. Each lysate was separated by SDS-PAGE, transferred to polyvinylidene fluoride (PVDF, Millipore, USA) membrane, and blotted with antibodies. Primary antibodies used for Western blotting were cMYC (Cell Signaling, Cat No. 5605S), MYCN (Cell Signaling, 9405S), PARP-1 (Abcam, ab32378), and GAPDH (Genetex, GTX100118). […]

[10] = test system: eleven types of cancer cells; experiment: Proliferation inhibition of eleven types of cancer cells (summary by cancer type); assay type: cell-based
Method: as §1, §2

[11] = all eleven cancer types, read-out: IC50 in inhibiting proliferation of all the eleven types of cancer cells
[12] = breast cancer, read-out: IC50 in inhibiting proliferation of cells
[13] = cholangiocarcinoma, read-out: IC50 in inhibiting proliferation of cells
[14] = non-small cell lung cancer, pancreatic cancer, and colon cancer, read-out: IC50 in inhibiting proliferation of cells
[15] = prostate cancer, read-out: IC50 in inhibiting proliferation of cells
[16] = small-cell-lung cancer, liver cancer, neuroblastoma, brain cancer, and leukemia, read-out: IC50 in inhibiting proliferation of cells

`CCN1CCN(c2cc(Nc3cc(C)[nH]n3)nc(N[C@H]3CCN(C(=O)c4ccc(Cl)cc4F)C3)n2)CC1` [Compound 41] gave an IC50 [1] of less than 200 nM, an IC50 [2] of less than 1000 nM and an IC50 [3] of less than 200 nM. The IC50 [4] was less than 200 nM, the IC50 [5] was less than 200 nM and the IC50 [6] was less than 200 nM. The IC50 [7] was less than 2000 nM, the IC50 [8] was less than 1000 nM and the “protein level of cMYC” value [9] was “greatly reduced”. For the same compound, the IC50 [10, 11] was less than 10000 nM, the IC50 [10, 12] was less than 300 nM and the IC50 [10, 13] was less than 2000 nM. It also gave an IC50 [10, 14] of less than 1000 nM, an IC50 [10, 15] of less than 10000 nM and an IC50 [10, 16] of less than 200 nM.
For `CCN1CCN(c2cc(Nc3cc(C)[nH]n3)nc(NC3CCN(C(=O)c4cccc(Cl)c4F)CC3)n2)CC1` [Compound 86], the IC50 [1] was less than 200 nM, the IC50 [2] was less than 1000 nM and the IC50 [3] was less than 200 nM. For the same compound, the IC50 [4] was less than 200 nM, the IC50 [5] was less than 300 nM and the IC50 [6] was less than 200 nM. For the same compound, the IC50 [7] was less than 2000 nM, the IC50 [8] was less than 1000 nM and the “protein level of cMYC” value [9] was “greatly reduced”. The IC50 [10, 11] was less than 10000 nM, the IC50 [10, 12] was less than 300 nM and the IC50 [10, 13] was less than 2000 nM. For the same compound, the IC50 [10, 14] was less than 1000 nM, the IC50 [10, 15] was less than 10000 nM and the IC50 [10, 16] was less than 200 nM.
